Results: publication PMC4620744 (Molecular cell, 2015)
Where no end group is shown, it is not given here.

What was measured:
[1] = biological target: full-length H2A-H2B (Saccharomyces cerevisiae, UniProt P02293+P04911); assay: ITC binding to full-length H2A-H2B
[2] = system: H2A-H2B M62E; assay: EMSA binding of full-length FACT to H2A-H2B M62E; design: species or system Saccharomyces cerevisiae; conditions: not shown
[3] = system: H2A-H2B M62E; assay: ITC binding of full-length FACT to H2A-H2B M62E; design: species or system Saccharomyces cerevisiae
[4] = system: H2A.Z-H2B; assay: EMSA of full-length FACT with H2A.Z-H2B; type: binding, Saccharomyces cerevisiae
[5] = system: H2A-H2B^30-130 bearing H2B Y45A; assay: ITC binding to H2A-H2B^30-130 bearing H2B Y45A; design: species or system Saccharomyces cerevisiae
[6] = system: H2A-H2B^30-130 bearing H2B M62A; assay: ITC binding to H2A-H2B^30-130 bearing H2B M62A; design: species or system Saccharomyces cerevisiae
[7] = system: H2A R78E H2A-H2B^30-130; assay: ITC binding to H2A-H2B^30-130 bearing H2A R78E; design: species or system Saccharomyces cerevisiae
[8] = system: H2A R78A H2A-H2B^30-130; assay: ITC binding to H2A-H2B^30-130 bearing H2A R78A; design: species or system Saccharomyces cerevisiae
[9] = system: H2A-H2B^30-130 H2B M62E; assay: ITC binding to H2A-H2B^30-130 bearing H2B M62E; design: species or system Saccharomyces cerevisiae

full-length H2A-H2B, sequence (P04911 2-132 limits assumed): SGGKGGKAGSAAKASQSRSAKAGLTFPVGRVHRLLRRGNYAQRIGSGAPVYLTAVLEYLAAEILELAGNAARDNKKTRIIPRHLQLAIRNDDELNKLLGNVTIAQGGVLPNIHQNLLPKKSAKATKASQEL
full-length H2A-H2B, sequence (P02293 2-131 limits assumed): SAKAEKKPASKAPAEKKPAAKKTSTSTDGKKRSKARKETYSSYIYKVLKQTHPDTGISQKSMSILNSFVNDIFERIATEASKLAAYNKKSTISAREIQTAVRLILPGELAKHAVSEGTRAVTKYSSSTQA

Substance: Pob3: Pob3 subunit of FACT
- Kd ([1]; read-out: dissociation constant (KD) for H2A-H2B, 25 °C, 25 mM Na-K phosphate pH 7.4, 200 mM NaCl, at least triplicate): ~1 µM

Substance: Spt16-C^958-999: Spt16 residues 958-999 (DDEASDESEEEVSEYEASEDDVSDESAFSEDEEGSEVDDDIS)
- binding to H2A-H2B (in words) ([1]; 25 °C, pH 7.4, 200 mM NaCl): recapitulates the full H2A-H2B binding activity of Spt16

Substance: full-length FACT: full-length S. cerevisiae Spt16-Pob3 heterodimer
- binding of full-length FACT to H2A-H2B M62E by EMSA (in words) [2]: diminished binding
- binding of full-length FACT to H2A-H2B M62E by ITC (in words) [3]: severe reduction in the binding
- discrimination between H2A.Z-H2B and H2A-H2B by EMSA (in words) [4]: does not differentiate between H2A.Z-H2B and H2A-H2B
- stoichiometry of binding to H2A-H2B ([1]; 25 °C, pH 7.4, 200 mM NaCl): one full-length Spt16-Pob3 heterodimer bound two H2A-H2B dimers

Substance: DESVDEDFQVSSDNDADEVAEEFDS [Pob3^505-529]
- reduction in binding (fold) with H2B Y45A relative to wild-type histones [5]: 12 fold
- reduction in binding (fold) with H2B M62A relative to wild-type histones [6]: 9 fold

Substance: Spt16^958-990: Spt16 peptide of residues 958-990 used for crystal structure and histone mutant binding (DDEASDESEEEVSEYEASEDDVSDESAFSEDEE)
- binding to H2A R78E histone mutant (in words) [7]: affinity was completely lost
- binding to H2A R78A histone mutant (in words) [8]: little effect on binding
- binding to H2B M62E histone mutant (in words) [9]: reduced binding to undetectable levels
